Reference: EP2891491A1, “Use of (r)-phenylpiracetam for the treatment of sleep disorders” (Merz Pharma GmbH & Co. KGaA, priority 2014, dated 2015)

Tests used:
rats [1] = test: electroencephalography (EEG) screen in freely moving rats; format: in vivo
Description: EXAMPLE 5: Testing of (R)-phenylpiracetam in an electroencephaloaraphy (EEG) screen - Fig. 4
(R)-Phenylpiracetam was tested at four different concentrations (1 mg/kg, 12.5 mg/kg, 25 mg/kg, and 50 mg/kg) in an EEG screen as described by Dimpfel (Dimpfel, Neuropsychobiology, 58 (2008)178-86).
Eight adult Fisher 344 rats (8 months of age, kept on inverse light-dark cycle, weight about 400 g, provided by Charles River Laboratories, D-97633, Sulzfeld) were used in this experimental series. Animals were implanted with electrodes into the brain and were given two weeks for recovery from surgery. After this the transmitter was plugged in for adaptation and control experiments.
The animals were allowed to acclimatize for at least 4 weeks before the study started. There was automatic control of light cycle, temperature and humidity. Light hours were 18 h in the evening - 6 h in the morning. […] Cages, bedding, and water bottles were changed at regular intervals, i.e. every 2-3 days. Standard diet (Nohrlin H10, Altromin, D-32791 Lage, Germany) was available to the animals ad libitum. The animals had access to domestic quality mains water ad libitum.
Rats were implanted with 4 bipolar concentric steel electrodes within a stereotactic surgical procedure during anaesthesia with ketamine. All four electrodes were placed 3 mm lateral within the left hemisphere. Dorsoventral coordinates were 4, 6, 4.2 and 8 mm and anterior coordinates were 3.7, 9.7, 5.7 and 12.2 mm for frontal cortex, striatum, hippocampus, and reticular formation, respectively (according to the atlas of Paxinos and Watson, 1982). A pre-constructed base plate carrying 4 bipolar stainless steel semi-micro electrodes (neurological electrodes "SNF 100" from Rhodes Medical Instruments, Inc., Summerland, CA 93067, USA) and a 5-pin-plug was fixed to the skull by dental cement interacting with 3 steel screws placed on distance into the bone. The distant recording spot of the electrode was the active electrode whereas the proximal spots of the four electrodes were connected to each other to give a reference. The base plate was carrying a plug to receive later on the transmitter (weight: 5.2 g including battery, 26 mm x 12 mm x 6 mm of size).
EEG signals were recorded from frontal cortex, hippocampus, striatum and reticular formation of freely moving rats from inside a totally copper shielded room. Signals were wirelessly transmitted by a radio-telemetric system (Rhema Labortechnik, Hofheim, Germany, using 40 MHz as carrier frequency) and were amplified and processed as described earlier to give power spectra of 0.25 Hz resolution (Dimpfel et al. 1986; Dimpfel et al. 1988; Dimpfel et al. 1989; Dimpfel, 2003). […]

rats [2] = test: motivation tests: progressive ratio task, cost-benefit choice test, consumption test; format: in vivo
Description: EXAMPLE 6: Effect of (R)-phenylpiracetam in motivation tests - Figs. 5, 6, 7, 8
Methylphenidate purchased from Sigma (Taufkirchen, Germany) was dissolved in distilled water fresh for each test day. D-Amphetamine purchased from Sigma (Taufkirchen, Germany) was dissolved in 0.9% sterile NaCl solution fresh for each test day. (R)-Phenylpiracetam was dissolved in distilled water fresh for each test day.
One hundred and three male Sprague-Dawley rats (Janvier, Le Genest-St-Isle, France) weighing 225-250 g on arrival were used.
The animals were kept under standard laboratory conditions in groups of up to 4 per care with ad libitum access to water. Standard diet for rodents (Altromin) was available to the animals at 15 g per animal/day
For each test described below, two independent experiments were performed using an identical protocol. After continuous reinforcement training (CRF) training (see below) all animals were assigned to treatment groups, such that performance across all the groups was similar. The treatment groups were evenly distributed throughout the caging system.
In experiment 1 and 2 the following protocols were used:
Overview: Three tests were performed in a consecutive manner on subsequent days. On day 1-2, animals were habituated individually to Skinner boxes in two sessions, one per day, for 30 min. Animals received "free" food pellets at a random time (one pellet per minute on average). On days 3-8 animals were trained in Skinner boxes on a continuous reinforcement schedule (one pellet per lever press). On days 9-10 they were tested in the progressive ratio test (Test 1) off-drug, on days 11-12 on-drug. On day 13, a choice test (Test 2) was performed on-drug, on day 14, a consumption test (Test 3) was performed on-drug. Below, tests are described in detail.
Behavioral testing was conducted in 12 operant test chambers (Med Associates, St. Albans, USA). Each chamber was equipped with a retractable lever, a food dispenser with receptacle, an overhead house light and two stimulus lights, one above the lever and the other above the food receptacle. An infrared photocell beam detected nose pokes into the food receptacle. The apparatus was controlled by a computer system (SmartControl®-Interface and MedPC-software, Med Associates, St. Albans, USA). The light above the food receptacle indicated the delivery of a food pellet in the receptacle. Rats were first habituated to the operant boxes for two sessions (30 min each) on two consecutive days. Thereafter, animals were trained for six sessions on the CRF schedule for 30 min. Followed by 4 sessions (two session off-drug followed by two sessions on-drug) of an increasing fixed ratio (FR) schedule in steps of 5, with 3 repetitions of each step (i.e. 1-1-1; 5-5-5; 10-10-10; ...). When the required FR value of each trial was achieved the light above the food receptacle indicated the delivery of a single food pellet (45 mg, Bioserve, USA). The light remained on until the rat poked its nose in the receptacle. Lever presses while the light was on were counted as perseverative lever presses; they were counted but had no programmed consequences. […] For each session, the value of the last completed ratio (breaking point) was recorded as well as the amount of received rewards, the perseverative lever presses, the duration of the session and the latency to respond. Animals of all treatment groups received respective vehicle/drug infusions 30 min pre-test on the final two sessions involving testing under a PR schedule.
In this task the rats had the choice between working for their preferred food (Bioserve pellets) by pressing the lever on a PR schedule as described above or obtaining lab chow being freely available in a dish (about 15 g) within the operant chamber. The food receptacle and the lever were positioned on the same wall of the operant chamber, the dish containing the lab chow was situated in a corner on the opposite side of the operant chamber. […]

## NC(=O)CN1C[C@@H](c2ccccc2)CC1=O [(R)-phenylpiracetam]
Rats [1]; EEG pattern compared with nootropics
  theta, delta, alpha1 and beta2 waves in the reticular formation: no change
Rats [1]; i.p., 1, 12.5, 25 and 50 mg/kg
  alpha2 and beta1 waves: dose dependent attenuation
Rats [1]; i.p., highest dosage
  theta power within the frontal cortex: increases
Rats [1]; i.p., video tracking during EEG
  Motility: increased
Rats [2]; cost-benefit choice test
  consumption of freely available normal food: does not increase
Rats [2]; drug 30 min pre-test
  motivation, i.e. the work load animals are willing to perform to obtain more rewarding food: increases motivation
Rats [2]; progressive ratio and cost benefit tests
  effect on motivation compared with methylphenidate and amphetamine: much stronger than that of methylphenidate and amphetamine
